Test system: Plasmodium falciparum
Assay: GSK_TCMDC: Inhibition of Plasmodium falciparum 3D7 in whole erythrocytes, using parasite LDH activity as an index of growth.
Type: functional, organism-based
Conditions: Plasmodium falciparum, 3D7

Structure (SMILES) | XC50
O=C(Cn1c(CCc2cccc(F)c2F)nc(=O)c2ccccc21)N(CCCN1CCCC1)Cc1ccc(-c2ccc(C(F)(F)F)cc2)cc1 | 941 nM
CC(C)(C)NCCN(Cc1ccc(-c2ccc(C(F)(F)F)cc2)cc1)C(=O)Cn1c(SCc2ccc(F)cc2)nc(=O)c2c1CCC2 | 860 nM
N=C(N)Nc1ccc(Cc2ccc(NC(=N)N)cc2)cc1 | 255 nM
COc1ccc(Nc2nccc(NCCNC(=O)Nc3ccccc3F)n2)cc1 | 1320 nM
CC1=C(C(=O)Nc2cc3cn[nH]c3cc2F)C(c2cccc(O)c2F)CC(=O)N1 (centres undefined) | 629 nM
C#CCOc1ccc(N2C(N)=NC(N)=NC2(C)C)cc1 | 65.8 nM
C=CCN1C(=O)C(=Cc2cc(Br)ccc2O)SC1=Nc1ccccc1 | 900 nM
CCCC(C)Nc1nc(C)cc(NCCC(=O)Nc2ccccc2)n1 (centres undefined) | 959 nM
N#Cc1ccc2c(c1)CCN(CCC1CCC(NC(=O)/C=C/c3nc4ccccc4s3)CC1)CC2 (centres undefined) | 829 nM
COc1cc(NC(=O)N2CCOC(CCN3CCC4(CCc5ccccc54)CC3)(c3ccc(Cl)c(Cl)c3)C2)cc(OC)c1 (centres undefined) | 819 nM
O=C(Cc1c[nH]cn1)Nc1ccc(-c2cccc(-c3nc4cc(F)ccc4[nH]3)c2)cc1 | 797 nM
COc1ccc(NC(=O)c2cn(-c3ccc(C(C)(C)C)cc3)nc2C)cc1N1CCN(C)CC1 | 949 nM
CCOc1cc(C)c(C2CCN(CCCCNC(=O)c3ccc(NC(=O)c4ccc(Cl)cc4)cc3)CC2)cc1C | 739 nM
O=C(NC1CCCCC1)C1CCCN(C(=O)c2ccc(O)c(-c3ccc(Cl)c(Cl)c3)c2)C1 (centres undefined) | 903 nM
Clc1ccc2c(NCCc3ccccn3)ccnc2c1 | 832 nM
CC(C)c1cc2c(ccc3nc(N)nc(N)c32)o1 | 85.7 nM
COc1cc(-c2cc(-c3ccc(S(C)(=O)=O)cc3)cnc2N)ccc1O | 101 nM
Cc1c(C)n(C2CCCCC2)c2ncnc(OC3CCN(CC(=O)N4CCCC4)CC3)c12 | 1450 nM
Cc1cccc2nc(-c3cccc(-c4cccc(CNCCN5CCNCC5)c4)c3)[nH]c12 | 970 nM
C#C[C@H]1O[C@@H](n2cnc3c(Nc4cc(Br)cc(C(F)(F)F)c4)ncnc32)[C@H](O)[C@@H]1O | 1030 nM
C#CC[C@@H](NC(N)=O)C(=O)O | 189 nM
CC(C)c1cn2c3c(cc(C(=O)N[C@@H](Cc4ccccc4)[C@H](O)CNC4CCCCC4)cc13)N(C)S(=O)(=O)CC2 | 30 nM
NC1CCN(CCc2ccc(NS(=O)(=O)c3cccc4ccccc34)cc2)CC1 | 1700 nM
CC(C)COc1ccc(Cl)cc1Cc1nc(-c2nc3ccc(N4CCN(C)CC4)nc3[nH]2)cs1 | 751 nM

Structure (SMILES) | XC50
Cc1cccc2nc(-c3ccc(-c4cccc(CN5CCCC5CN)c4)cc3)[nH]c12 (centres undefined) | 914 nM
Cc1cc(Nc2ccc(O)cc2)nc2cc(O)ccc12 | 756 nM
Cc1ccc(C)c(Sc2ccc(NC(=O)CN3CCN(C(=O)c4ccco4)CC3)cc2)c1 | 716 nM
CC(=O)Nc1nc(C(=O)Nc2ccc(-c3cccc(-c4nc5cccc(C)c5[nH]4)c3)cc2)cs1 | 232 nM
CCN(CC)CCCCNc1cc(-c2[nH]c(-c3c(Cl)cccc3Cl)nc2-c2ccc3cc(OC)ccc3c2)ccn1 | 958 nM
O=C(Cc1cccc(O)c1)Nc1ccc(-c2cccc(-c3nc4cc(C(F)(F)F)ccc4[nH]3)c2)cc1 | 983 nM
Cc1cc2ccccc2n1CC(=O)N1CC(C(=O)N2CCCCC2)Oc2ccccc21 (centres undefined) | 899 nM
CC(=O)Nc1cc(C(=O)Nc2ccc(C3=NCCN3)cc2)ccc1C(=O)Nc1ccc(C2=NCCN2)cc1 | 133 nM
COc1ccc(C(=O)CCC(=O)N(CCSC(C)(C)C)Cc2ccc(-c3ccc(CNCCc4ccc(S(C)(=O)=O)cc4)cn3)cc2)cc1F | 627 nM
COc1ccc(CNCc2ccsc2)cc1-c1ccc(S(=O)(=O)NCCN2CCCC2)s1 | 766 nM
O=C(/C=C/c1ccc(Cl)c(Cl)c1)N1CCN(C(=O)Nc2ccc(F)c(Cl)c2)CC1 | 724 nM
Cc1nc2ccc3nc(NC(=O)c4ccno4)sc3c2s1 | 656 nM
O=C(NC1CCN(Cc2ccccc2)CC1)c1ccc(-c2nc3cc4ccccc4cc3[nH]2)s1 | 601 nM
COCCNCc1cccc(-c2cc3nccc(Nc4ccc(Oc5ccccc5)cc4)c3cc2Cl)c1 | 1380 nM
Cc1ccc2cc(NCCCCCCCCON3C(N)=NC(N)=NC34CCCCC4)ccc2n1 | 163 nM
COc1cc2nc(N3CCC(CNC(=O)c4ccc(-c5cccc(C#N)c5)cc4)CC3)nc(N)c2cc1OC | 139 nM
CNCCNCc1ccc(-c2ccc(-c3nc4cccc(C)c4[nH]3)cc2)cc1 | 670 nM
CS(=O)(=O)CCNCc1cccc(-c2ccc3c(Nc4cc(O)c(Cl)cc4F)ccnc3c2)c1 | 254 nM
COc1ccc2nccc([C@@H](O)CN3CCC(NC(=O)c4cccc(C(=O)c5ccccc5)c4)CC3)c2c1 | 685 nM
O=C(/C=C/c1ccc(Cl)c(Cl)c1)N1CCC(CN2CCC(c3cn(CC(=O)N4CCCCC4)c4ccccc34)CC2)CC1 | 750 nM
COc1cc(Br)c(NC(=O)Nc2ccc(C(F)(F)F)c(O[C@@H]3CCN(C)C3)c2)cc1OC | 626 nM
NC(=O)c1cccc(Nc2nccc(Nc3ccc(Oc4c(Cl)cccc4Cl)c(Cl)c3)n2)c1 | 871 nM
CC(C)NCc1ccc(-c2ccc(-c3nc4cc(F)ccc4[nH]3)cc2)cc1 | 213 nM
COc1ccc(NC(=O)[C@H](Cc2ccccc2)Nc2cc(C)nc(NCCc3cccnc3)n2)cc1 | 760 nM

Structure (SMILES) | XC50
O=c1cc(NCCCNCc2ccc(Cl)c(Cl)c2)[nH]c2cc(F)cc(F)c12 | 675 nM
Cn1cnc(CCNC(=O)c2ccc(-c3cccc(-c4nc5ccccc5[nH]4)c3)cc2)c1 | 1100 nM
O=C(Cc1cccc2ccccc12)NC1CCN(c2ccnc3cc(Cl)ccc23)C1 (centres undefined) | 248 nM
O=C(Nc1ccc(-c2csc3nccn23)cc1)c1ccc(Cl)cc1 | 584 nM
CCOC(=O)c1ccc(N2CCN(CCCNC(=O)/C(=C/C=C/c3cc4cc(Cl)c(Cl)cc4[nH]3)OC)CC2)cc1 | 845 nM
O=C(C=Cc1ccc(Cl)c(Cl)c1)NCCCCCN1CCCC(CCCNC(=O)c2cccs2)C1 (centres undefined) | 1300 nM
CCC1(C)N=C(N)N=C(N)N1c1ccccc1 (centres undefined) | 792 nM
CC(C)CCNCc1ccc(OCc2ccccc2COc2ccc(CNCCC(C)C)cc2I)c(I)c1 | 425 nM
CC(C)COc1ccc(Cl)cc1Cc1nc(-c2nc3ccc(CN4CCCC4)cc3[nH]2)co1 | 727 nM
Cc1ccc(-c2cnc(N)c3cc(-c4ccnc(N)n4)ccc23)cc1 | 808 nM
CC(CN1CCN(C)CC1)C(=O)Nc1cccc(-c2cccc(-c3nc4ccccc4[nH]3)c2)c1 (centres undefined) | 1010 nM
O=C(Nc1cccc(F)c1)N[C@H]1CCN(CCCCCNC(=O)C2CC2c2ccc(Cl)c(Cl)c2)C1 (some centres undefined) | 991 nM
CN(C)CC(O)COc1ccc(Nc2ncc([N+](=O)[O-])c(Nc3ccccc3O)n2)cc1 (centres undefined) | 762 nM
COc1ccc(NC(=O)c2ccc(-c3cc(NC(=O)c4ccnc(N5CCCC5)c4)ccc3C)s2)cc1N1CCN(C)CC1 | 245 nM
Cc1cc(CNCC2CCC(CNCCCc3ccccc3)CC2)ccc1O (centres undefined) | 871 nM
COc1ccc2ncc(F)c([C@H](O)CN3CCC(NCc4ccc5c(c4)NC(=O)CS5)CC3)c2c1 | 185 nM
CCC(CC)n1cc2c(ccc3nc(N)nc(N)c32)n1 | 81.4 nM
Cn1cncc1CCN(Cc1ccc(-c2ccc(C(F)(F)F)cc2)cc1)C(=O)Cn1c(SCc2cccc(F)c2F)cc(=O)c2ccccc21 | 990 nM
CCCCNC(=O)[C@H](CC1CCCCC1)NC(=O)c1ccc(O)c(-c2ccc(Cl)c(Cl)c2)c1 | 164 nM
CCOC(=O)c1cn(CC)c2cc(N(C)CCc3ccc(OC)c(OC)c3)c(F)cc2c1=O | 425 nM
CC1CCCN(c2ccc(NC(=O)c3cccs3)cc2[N+](=O)[O-])C1 (centres undefined) | 669 nM
Cc1ccc(C(CC(=O)Nc2nccs2)c2ccc(OC(C)C)cc2)cc1 (centres undefined) | 479 nM
CC(CCCCCC(=O)Nc1ccc(CC(C)NCCc2cccc(Cl)c2)cc1)NCCc1cccc(Cl)c1 (centres undefined) | 948 nM
CC(C)Nc1cc(C(=O)N[C@@H](Cc2ccccc2)[C@H](O)CNC2CCCCC2)cc(N2CCCCS2(=O)=O)c1 | 103 nM

Structure (SMILES) | XC50
CCOc1ccccc1C1CCN(CCCCNC(=O)c2ccc(NC(=O)c3ccc(Cl)cc3)cc2)CC1 | 846 nM
CCCCCCCCCn1c(NCc2cc(Cl)ccc2O)nc2ccccc21 | 825 nM
CCc1c(C(=O)NC2CCC(N3CCC(c4ccccc4C)CC3)CC2)[nH]c2ccc(Br)cc12 (centres undefined) | 928 nM
CCCN1CCN(Cc2ccc(-c3ccc(-c4nc5ccccc5[nH]4)s3)cc2)CC1 | 611 nM
COc1ccccc1-c1csc(C(=O)NC2CCCCN(Cc3ccc(C(C)(C)C)cc3)C2)c1 (centres undefined) | 1530 nM
O=C(/C=C/c1ccc(Cl)cc1)NCCCCCN1CCCN(C(=O)Nc2ccc(F)c(Cl)c2)CC1 | 781 nM
O=C(Nc1ccc(S(=O)(=O)N2CCCCC2)cc1)c1cc(-c2cc(Cl)ccc2O)n[nH]1 | 811 nM
Cc1ccc(NC(=O)c2cn(-c3ccccc3)nc2-c2ccc(F)cc2)cc1[N+](=O)[O-] | 1000 nM
COc1cc(NC(=O)c2c(-c3c(Cl)cccc3Cl)noc2C)c(OC)cc1Cl | 916 nM
Cc1cccc2nc(-c3ccc(-c4cccc(NC(=O)Nc5ccsc5)c4)s3)[nH]c12 | 542 nM
CCC(C)OC(=O)C1=C(C)NC2=C(C(=O)CC(c3ccc(OC)c(OC)c3)C2)C1c1cccc(O)c1 (centres undefined) | 193 nM
Cc1onc(-c2ccccc2)c1C(=O)Nc1nc(-c2ccccn2)nc2ccsc12 | 685 nM
CC(=O)Nc1ccc(OCCN(CC(F)(F)F)c2ccc(C#N)cc2C(F)(F)F)cc1 | 767 nM
COc1cccc(C(=O)NC(C=Cc2ccccc2)c2cc(Cl)c3cccnc3c2O)c1 (centres undefined) | 859 nM
Cc1cccc2nc(-c3cccc(-c4cccc(NC(=O)c5cn(C)c(=O)n5C)c4)c3)[nH]c12 | 505 nM
Cc1cc(O)c(C(C)C)cc1C1(c2cc(C(C)C)c(O)cc2C)OC(=O)c2ccccc21 | 871 nM
COc1cc(Cc2cnc(N)nc2N)cc(OCCCCCC(=O)O)c1OC | 231 nM
COc1cccc(C(=O)C2CC2CN2CC=C(c3c[nH]c4cccc(Br)c34)CC2)c1 (centres undefined) | 752 nM
CN1CCC(NCc2cccc(-c3ccc(S(=O)(=O)NCCN4CCCC4)c(F)c3)c2)CC1 | 1010 nM
CC(=O)c1cccc2cc(C(=O)NC3CCC(CCN4CCc5ccc(C#N)cc5C4)CC3)[nH]c12 (centres undefined) | 787 nM
Cc1ccc(C2CCN(CCCCNC(=O)c3ccc(NC(=O)c4ccc(Cl)cc4)cc3)CC2)c(OCC2CC2)c1 | 887 nM
Cc1ccc(/C=C2/SC(=Nc3ccccc3)NC2=O)c(C)c1 | 557 nM

— ChEMBL document CHEMBL1157539, “Thousands of chemical starting points for antimalarial lead identification” (Nature, 2010)
